The results in this text go back to patent US6451816B1, “Use of pyridyl alkane, pyridyl alkene and/or pyridyl alkine acid amides in the treatment of tumors or for immunosuppression” (Klinge Pharma GmbH, priority 1997, dated 2002).

SMILES strings stand for the structures. Counter-ions that a name gives are not always drawn.

On to `Cl.Cl.O=C(C=Cc1cccnc1)NCCCCC1CCNCC1`, for which the melting point (usually the temperature, or range, at which the solid turns liquid) was in the range of 178 to 188 °C. The result for `O=C(C=Cc1cccnc1)NCCCCC1CCN(C(c2ccccc2)c2ccccc2)CC1` (as salt: methanesulfonate) [Substance 104, N-[4-(1-Diphenylmethylpiperidin-4-yl)-butyl]-3-(pyridin-3-yl)-acrylamide] reads 156 °C; that for `O=C(C=Cc1cccnc1)NCC1CN(C(c2ccccc2)c2ccccc2)C1` [Substance 2, N-(1-Diphenylmethylazetidin-3-ylmethyl)-3-(pyridin-3-yl)-acrylamide], 72 to 74 °C; that for `O=C(C=Cc1cccnc1)NCCCCC1CCN(Cc2ccccc2)CC1` [Substance 46, N-[4-(1-Benzylpiperidin-4-yl)-butyl]-3-(pyridin-3-yl)-acrylamide], 88 to 90 °C.

Turning to `O=C(C=Cc1cccnc1)NCCCOC1CCN(Cc2ccccc2)CC1` [Substance 55, N-[3-(1-Benzylpiperidine-4-yloxy)-propyl]-3-(pyridin-3-yl)-acrylamide], the melting point lay within 100 to 102 °C. The result for `O=C(C=Cc1cccnc1)NCCC1CCN(C(c2ccccc2)c2ccccc2)CC1` [Substance 95, N-[2-(1-Diphenylmethylpiperidin-4-yl)-ethyl]-3-(pyridin-3-yl)-acrylamide] reads 141 to 143 °C. The result for `O=C(CCc1cccnc1)NCCCC1CCN(C(c2ccccc2)c2ccccc2)CC1` [Substance 96, N-[3-(1-Diphenylmethylpiperidin-4-yl)-propyl]-3-(pyridin-3-yl)-propionamide] reads 109 to 110 °C; that for `CCN(CCCCC1CCN(C(c2ccccc2)c2ccccc2)CC1)C(=O)/C=C/c1cccnc1` [Substance 123, N-[4-(1-Diphenylmethylpiperidin-4-yl)-butyl]-N-ethyl-3-(pyridin-3-yl)-acrylamide], 115 to 117 °C. As for `O=C(COc1cccnc1)NCCCCC1CCN(C(c2ccccc2)c2ccccc2)CC1` [Substance 129, N-[4-(1-Diphenylmethylpiperidin-4-yl)-butyl]-2-(pyridin-3-yloxy)-acetamide], the melting point is 103 to 105 °C. Consider `O=C(C=CC=Cc1cccnc1)NCCCCC1CCN(C(c2ccccc2)c2ccccc2)CC1` [Substance 132, N-[4-(1-Diphenylmethylpiperidine-4-yl)-butyl]-5-(pyridin-3-yl)-2,4-pentadienoic Acid Amide], for which the melting point was 164 to 166 °C. The result for `O=C(CCc1cccnc1)NCCCCCC1CCN(C(c2ccccc2)c2ccccc2)CC1` [Substance 142, N-[5-(1-Diphenylmethylpiperidin-4-yl)-pentyl]-3-(pyridin-3-yl)-propionamide] reads 112 to 114 °C. The result for `O=C(C=Cc1cccnc1)NCCCCC1CCN(C(c2ccc(F)cc2)c2ccc(F)cc2)CC1` [Substance 171, N-(4-{1-[bis-(4-Fluorophenyl)-methyl]-piperidin-4-yl}-butyl)-3-(pyridin-3-yl)-acrylamide] reads 108 °C; that for `O=C(CCc1cccnc1)NCCCCC1CCN(C2c3ccccc3COc3ccccc32)CC1` (stereo not drawn) [Substance 230, N-{4-[1-(6,11-Dihydrodibenzo[b,e]-oxepin-11-yl)-piperidine-4-yl]-butyl}-3-(pyridin-3-yl)-propionamide], 110 to 112 °C. The result for `O=C(C=Cc1cccnc1)NCCCCC1CCN(C(=O)c2cccc3c2-c2ccccc2C3=O)CC1` [Substance 277, N-{4-[1-(9-oxo-9H-Fluorene-4-carbonyl)-piperidine-4-yl]-butyl}-3-(pyridin-3-yl)-acrylamide] reads 80 to 82 °C. `O=C(CCc1cccnc1)NCCCCC1CCN(S(=O)(=O)c2ccc3ccccc3c2)CC1` [Substance 337, N-{4-[1-(2-Naphthylsulfonyl)-piperidin-4-yl]-butyl}-3-(pyridin-3-yl)-propionamide] returned a melting point of 103 to 105 °C.
